Reference: the supplement of paper PMC8967900

How the values were obtained:
Test in all cases: selective drug sensitivity score (sDSS, relative to normal bone marrow) (sDSS (score)); higher = more potent and effective on the cell line relative to normal bone marrow cells
Conditions in all cases: 72 h
[1] = system: 380
[2] = system: ALL-SIL
[3] = system: COG-LL-317
[4] = system: COG-LL-332h
[5] = system: COG-LL-394h
[6] = system: COG-LL-402h
[7] = system: HAL-01
[8] = system: HPB-ALL
[9] = system: JURKAT
[10] = system: KARPAS-45
[11] = system: MHH-CALL-2
[12] = system: MHH-CALL-3
[13] = system: MN-60
[14] = system: MOLT-14
[15] = system: NALM-16
[16] = system: P12-ICHIKAWA
[17] = system: P30-OHKUBO
[18] = system: PF-382
[19] = system: REH
[20] = system: RPMI-8402
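Further: ALL cell lines in 384-well plates, five doses spanning 10,000-fold, each plate scaled between vehicle and 100 µmol/L benzalkonium chloride controls, sDSS an adapted area-under-curve metric.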

| SMILES | selective drug sensitivity score [1] | selective drug sensitivity score [2] | selective drug sensitivity score [3] | selective drug sensitivity score [4] | selective drug sensitivity score [5] | selective drug sensitivity score [6] | selective drug sensitivity score [7] | selective drug sensitivity score [8] | selective drug sensitivity score [9] | selective drug sensitivity score [10] | selective drug sensitivity score [11] | selective drug sensitivity score [12] | selective drug sensitivity score [13] | selective drug sensitivity score [14] | selective drug sensitivity score [15] | selective drug sensitivity score [16] | selective drug sensitivity score [17] | selective drug sensitivity score [18] | selective drug sensitivity score [19] | selective drug sensitivity score [20] |
| --- | --- | --- | --- | --- | --- | --- | --- | --- | --- | --- | --- | --- | --- | --- | --- | --- | --- | --- | --- | --- |
| Cc1cc2c(C(=O)NC[C@H](C)c3ccccc3)c(O)c(O)cc2c(O)c1-c1c(C)cc2c(C(=O)NC[C@H](C)c3ccccc3)c(O)c(O)cc2c1O [Sabutoclax] (top concentration 25000 nM) | 14.1 | 12.2 | 15.6 | 12.8 | 15.7 | 15.3 | -7.62 | 19.4 | 16.7 | 16.2 | -7.82 | -8.12 | 13 | 16.8 | 6.78 | 13.7 | 15.9 | 11.1 | 17.5 | 4.38 |
| COc1cc2ncnc(Nc3ccc(F)c(Cl)c3)c2cc1NC(=O)/C=C/CN1CCCCC1 [Dacomitinib] (top concentration 1000 nM) | -1.64 | -1.04 | -0.44 | -0.84 | -1.64 | 0.96 | 2.66 | -1.54 | -1.64 | 0.36 | 2.06 | 2.06 | -1.64 | 0.86 | -1.54 | -1.44 | 0.96 | -0.94 | -1.04 | -0.34 |
| COc1cc(Br)c(Nc2nc(-c3c(C)nc4ncccn34)cs2)c(Br)c1 [PTC-209] (top concentration 10000 nM) | -1.48 | 0.42 | 0.42 | -1.08 | -2.58 | -0.78 | 0.42 | 6.92 | 0.62 | 0.02 | 1.92 | -5.08 | 0.42 | -0.88 | -2.38 | 0.42 | 4.52 | -0.68 | 3.62 | 1.02 |
| Cc1ccc(F)c(NC(=O)Nc2ccc(-c3cccc4[nH]nc(N)c34)cc2)c1 [Linifanib] (top concentration 1000 nM) | -1.12 | -1.12 | -1.12 | -1.12 | -1.12 | -1.12 | -1.12 | -1.12 | -1.12 | -1.12 | -1.12 | -1.12 | -1.12 | -1.12 | -1.12 | -1.12 | -1.12 | -1.12 | -1.12 | -1.12 |
| C=CC(=O)N1CCC(Oc2cc3c(Nc4ccc(Cl)c(Cl)c4F)ncnc3cc2OC)CC1 [Poziotinib] (top concentration 1000 nM) | -0.22 | 3.48 | 2.68 | 1.48 | -0.22 | 1.58 | 1.18 | -0.12 | -0.22 | -0.22 | -0.22 | 3.08 | -0.22 | 0.78 | -0.22 | -0.22 | -0.22 | -0.22 | -0.22 | -0.22 |
| COc1cc2ncnc(Nc3cccc(Cl)c3F)c2cc1OC(=O)N1CCN(C)C[C@H]1C [AZD3759] (top concentration 1000 nM) | -0.04 | 5.76 | -0.04 | -0.04 | -0.04 | -0.04 | -0.04 | -0.04 | -0.04 | -0.04 | 1.56 | -0.04 | -0.04 | -0.04 | -0.04 | -0.04 | -0.04 | -0.04 | 0.66 | -0.04 |
| CCCOc1ccn2c(C(C)=O)cc(-c3ccccc3S(C)(=O)=O)c2c1 [GSK2801] (top concentration 10000 nM) | 3.44 | -0.36 | 0.84 | 2.04 | -0.16 | -0.36 | -0.36 | -0.36 | -0.26 | 0.44 | -0.16 | -0.36 | -0.36 | 2.64 | -0.36 | -0.16 | -0.36 | 0.54 | -0.36 | -0.16 |
| CCn1cc(-c2ccnc3[nH]c(-c4cccc(CN(C)C)c4)cc23)c(-c2ccc(NC(=O)N(C)C)cc2)n1 (top concentration 1000 nM) | 19 | 21.3 | 18.7 | 19.3 | 0.36 | 17.8 | 1.46 | -0.44 | -1.84 | 24.1 | 6.66 | 2.06 | -1.84 | 15.9 | -1.84 | 15.4 | 26.6 | 9.26 | 19.3 | 8.86 |
| Cc1c(Cn2c(C)nc3c(C(=O)O)cc(N4CCOCC4)cc32)cccc1C(F)(F)F (top concentration 10000 nM) | -0.02 | -0.02 | 2.28 | 0.98 | -0.02 | 3.68 | 9.28 | -0.02 | -0.02 | 0.08 | 0.58 | -0.02 | -0.02 | 0.38 | -0.02 | -0.02 | 2.38 | -0.02 | 0.68 | -0.02 |
| C=CCc1cccc(/C=N/NC(=O)CN2CCN(Cc3ccccc3)CC2)c1O [PAC-1] (top concentration 10000 nM) | 0.38 | 3.18 | 12.7 | 7.08 | 1.08 | 4.98 | 3.38 | 0.98 | 1.28 | 3.28 | 5.58 | -0.22 | 4.08 | 8.28 | 3.58 | 1.68 | 1.18 | 2.78 | 3.48 | 1.78 |
| COCCOc1cnc2ccn([C@H](C)c3nnc4c(F)cc(-c5cnn(C)c5)cn34)c(=O)c2c1 [AMG-337] (top concentration 10000 nM) | 3.04 | -0.06 | -0.06 | -0.06 | -0.06 | -0.06 | 5.24 | 1.54 | -0.06 | -0.06 | 7.54 | 4.94 | -0.06 | -0.06 | -0.06 | -0.06 | 0.84 | -0.06 | 1.24 | -0.06 |
| CC[C@H](C)C(=O)O[C@H]1C[C@H](O)C=C2C=C[C@H](C)[C@H](CC[C@@H](O)C[C@@H](O)CC(=O)O)[C@H]21 [Pravastatin] (top concentration 10000 nM) | 3.04 | -0.66 | 0.94 | -0.66 | -0.66 | -0.46 | 0.64 | -0.66 | -0.66 | -0.66 | -0.36 | 0.74 | -0.66 | -0.16 | -0.66 | -0.66 | -0.66 | -0.66 | -0.66 | -0.66 |
| O=C1c2c(O)ccc(O)c2C(=O)c2c(NCCNCCO)ccc(NCCNCCO)c21 [Mitoxantrone] (top concentration 1000 nM) | 16.3 | 7.44 | 16.2 | 11.7 | 13.2 | 15.8 | 5.64 | -3.06 | -3.86 | -1.66 | 7.34 | 14.4 | -3.86 | 11.6 | -5.06 | 8.84 | 7.84 | -1.86 | 12.6 | 6.34 |
| CC1(C)CNc2cc(NC(=O)c3cccnc3NCc3ccncc3)ccc21 [Motesanib] (top concentration 10000 nM) | -0.22 | -0.22 | -0.22 | -0.22 | 0.78 | 1.98 | -0.22 | -0.22 | -0.22 | -0.22 | -0.22 | -0.22 | -0.22 | -0.22 | -0.22 | -0.22 | -0.22 | -0.22 | -0.22 | -0.22 |
| CC1=C2C[C@H]3[C@@H](CC[C@@H]4C[C@H](NS(C)(=O)=O)CC[C@@]43C)[C@@H]2CC[C@@]2(C1)O[C@@H]1C[C@H](C)CN[C@H]1[C@H]2C [Saridegib] (top concentration 10000 nM) | -0.96 | -1.16 | -1.16 | -0.06 | 5.34 | 0.94 | 1.14 | 0.34 | -0.56 | 3.44 | 3.14 | 0.34 | -1.16 | 1.04 | 0.04 | -0.06 | -0.66 | 0.34 | -1.16 | 0.54 |
| CN[C@@H](C)C(=O)N[C@H]1CN(C(=O)CC(C)C)CC[C@H]2CC[C@@H](C(=O)NC(c3ccccc3)c3ccccc3)N2C1=O [AT-406] (top concentration 10000 nM) | -1.26 | -1.26 | 0.64 | 2.54 | 5.84 | -0.86 | 3.04 | -1.26 | -1.26 | -1.26 | 2.14 | -1.26 | -1.26 | -1.26 | -1.26 | -1.26 | -1.06 | -1.26 | 5.74 | -0.96 |
| CC/C(=C(\c1ccccc1)c1ccc(OCCN(C)C)cc1)c1ccccc1 [Tamoxifen] (top concentration 10000 nM) | 0.02 | 3.12 | 1.42 | 1.32 | 2.32 | 1.22 | 1.82 | 6.02 | -1.48 | 1.92 | 0.82 | -2.48 | -1.58 | 0.62 | -3.18 | 0.32 | 3.32 | 1.72 | 1.02 | 0.42 |
| CNC(=O)c1cccc2cc(Oc3ccnc4cc(OCC5(N)CC5)c(OC)cc34)ccc12 [Lucitanib] (top concentration 10000 nM) | 1.18 | 4.88 | 2.78 | 2.88 | 1.58 | 3.58 | 3.88 | 3.18 | 2.78 | 3.18 | 4.18 | -0.62 | -0.62 | 2.28 | -0.62 | 1.28 | 5.88 | 1.38 | 6.88 | 1.88 |
